{
  "source": "patent US5300279A",
  "about": "“Organic amine phosphonic acid complexes for the treatment of calcific tumors” (The Dow Chemical Company, priority 1990, dated 1994)",
  "key": {"[1]": {"text": "Quantitative biodistributions were obtained by injecting 50-100 microliters of the composition into the tail vein of unanesthetized male Sprague Dawley rats. The rats were then placed in cages lined with absorbent paper in order to collect all urine excreted prior to sacrifice. After a given period of time, the rats were sacrificed by cervical dislocation and the various tissues dissected. The samples were then rinsed with saline, blotted dry on absorbent paper and weighed. The radioactivity in the samples was measured with a NaI scintillation counter.\nWhenever in the following examples and tables data is presented on the administered dose of radioactivity, the numbers given represent the percentage of the administered dose which localized in the indicated tissue. The ratios of radioactivity observed in bone relative to blood and muscle were calculated based on the percent dose per gram in the bone and in the blood and muscle. Whenever the ratios of radioactivity found in bone to that found in nonosseous tissue is given, the calculation was made as indicated above on a percent dose per gram basis.\nA series of rats was injected with compositions containing Sm-153 EDTMP (compositions prepared as in Example 2) and sacrified in groups of five at various intervals."}, "tumor": {"test_system": "tumor", "protocol": "An English Setter with a tumor in his pelvis was injected with approximately 19 mCi of a composition containing Sm-153-EDTMP. After 2 hours, the dog was imaged using a scintillation camera.\nAn Irish Setter with a tumor in the femur was injected with a composition containing Sm-153-EDTMP. The leg was amputated and samples of the tumor and normal bone were analyzed for Sm-153.\nAn Irish setter with undifferentiated sarcoma metastatic to bone was treated with 16 mCi (0.57 mCi/kg) of a composition containing Sm-153-EDTMP. […] After approximately 3 months, when signs of lameness began to reappear, the dog was given a second treatment of 15 mCi (0.49 mCi/kg), of a composition containing Sm-153-EDTMP."}},
  "note": "Like-named read-outs stand apart in the source and are kept apart here.",
  "data": [
    {"compound": "O=P([O-])(O)CN(CCN(CP(=O)([O-])O)CP(=O)(O)O)CP(=O)([O-])O.[153Sm+3]", "note": "[Example 2]", "values": [
      {"measurement": "Average Percent of Injected Dose, Blood", "setting": "[1]; 1 Hour", "result": ".532% of Injected Dose"},
      {"measurement": "Average Percent of Injected Dose, Kidneys", "setting": "[1]; 1 Hour", "result": ".466% of Injected Dose"},
      {"measurement": "Average Percent of Injected Dose, Liver", "setting": "[1]; 1 Hour", "result": ".322% of Injected Dose"},
      {"measurement": "Average Percent of Injected Dose, Skeleton", "setting": "[1]; 1 Hour", "result": "58% of Injected Dose"},
      {"measurement": "Average Percent of Injected Dose, Urine", "setting": "[1]; 1 Hour", "result": "47% of Injected Dose"},
      {"measurement": "Bone/Blood", "setting": "[1]; 1 Hour", "result": 120},
      {"measurement": "Bone/Muscle", "setting": "[1]; 1 Hour", "result": 300},
      {"measurement": "Average Percent of Injected Dose, Blood", "setting": "[1]; 2 Hours", "result": ".032% of Injected Dose"},
      {"measurement": "Average Percent of Injected Dose, Kidneys", "setting": "[1]; 2 Hours", "result": ".254% of Injected Dose"},
      {"measurement": "Average Percent of Injected Dose, Liver", "setting": "[1]; 2 Hours", "result": ".252% of Injected Dose"},
      {"measurement": "Average Percent of Injected Dose, Skeleton", "setting": "[1]; 2 Hours", "result": "58% of Injected Dose"},
      {"measurement": "Average Percent of Injected Dose, Urine", "setting": "[1]; 2 Hours", "result": "49% of Injected Dose"},
      {"measurement": "Bone/Blood", "setting": "[1]; 2 Hours", "result": 1800},
      {"measurement": "Bone/Muscle", "setting": "[1]; 2 Hours", "result": 1500},
      {"measurement": "Average Percent of Injected Dose, Blood", "setting": "[1]; 5 Hours", "result": ".008% of Injected Dose"},
      {"measurement": "Average Percent of Injected Dose, Kidneys", "setting": "[1]; 5 Hours", "result": ".364% of Injected Dose"},
      {"measurement": "Average Percent of Injected Dose, Liver", "setting": "[1]; 5 Hours", "result": ".370% of Injected Dose"},
      {"measurement": "Average Percent of Injected Dose, Skeleton", "setting": "[1]; 5 Hours", "result": "59% of Injected Dose"},
      {"measurement": "Average Percent of Injected Dose, Urine", "setting": "[1]; 5 Hours", "result": "46% of Injected Dose"},
      {"measurement": "Bone/Blood", "setting": "[1]; 5 Hours", "result": 4200},
      {"measurement": "Bone/Muscle", "setting": "[1]; 5 Hours", "result": 3600},
      {"measurement": "Average Percent of Injected Dose, Blood", "setting": "[1]; 15 Min.", "result": "5.852% of Injected Dose"},
      {"measurement": "Average Percent of Injected Dose, Kidneys", "setting": "[1]; 15 Min.", "result": "1.745% of Injected Dose"},
      {"measurement": "Average Percent of Injected Dose, Liver", "setting": "[1]; 15 Min.", "result": ".959% of Injected Dose"},
      {"measurement": "Average Percent of Injected Dose, Skeleton", "setting": "[1]; 15 Min.", "result": "48% of Injected Dose"},
      {"measurement": "Average Percent of Injected Dose, Urine", "setting": "[1]; 15 Min.", "result": "28% of Injected Dose"},
      {"measurement": "Bone/Blood", "setting": "[1]; 15 Min.", "result": 7},
      {"measurement": "Bone/Muscle", "setting": "[1]; 15 Min.", "result": 30},
      {"measurement": "Average Percent of Injected Dose, Blood", "setting": "[1]; 24 Hours", "result": ".007% of Injected Dose"},
      {"measurement": "Average Percent of Injected Dose, Kidneys", "setting": "[1]; 24 Hours", "result": ".250% of Injected Dose"},
      {"measurement": "Average Percent of Injected Dose, Liver", "setting": "[1]; 24 Hours", "result": ".349% of Injected Dose"},
      {"measurement": "Average Percent of Injected Dose, Skeleton", "setting": "[1]; 24 Hours", "result": "52% of Injected Dose"},
      {"measurement": "Average Percent of Injected Dose, Urine", "setting": "[1]; 24 Hours", "result": "55% of Injected Dose"},
      {"measurement": "Bone/Blood", "setting": "[1]; 24 Hours", "result": 6700},
      {"measurement": "Bone/Muscle", "setting": "[1]; 24 Hours", "result": 2400},
      {"measurement": "Average Percent of Injected Dose, Blood", "setting": "[1]; 30 Min.", "result": "2.304% of Injected Dose"},
      {"measurement": "Average Percent of Injected Dose, Kidneys", "setting": "[1]; 30 Min.", "result": ".805% of Injected Dose"},
      {"measurement": "Average Percent of Injected Dose, Liver", "setting": "[1]; 30 Min.", "result": ".526% of Injected Dose"},
      {"measurement": "Average Percent of Injected Dose, Skeleton", "setting": "[1]; 30 Min.", "result": "53% of Injected Dose"},
      {"measurement": "Average Percent of Injected Dose, Urine", "setting": "[1]; 30 Min.", "result": "42% of Injected Dose"},
      {"measurement": "Bone/Blood", "setting": "[1]; 30 Min.", "result": 20},
      {"measurement": "Bone/Muscle", "setting": "[1]; 30 Min.", "result": 70},
      {"measurement": "Average Percent of Injected Dose, Blood", "setting": "[1]; 48 Hours", "result": ".006% of Injected Dose"},
      {"measurement": "Average Percent of Injected Dose, Kidneys", "setting": "[1]; 48 Hours", "result": ".286% of Injected Dose"},
      {"measurement": "Average Percent of Injected Dose, Liver", "setting": "[1]; 48 Hours", "result": ".458% of Injected Dose"},
      {"measurement": "Average Percent of Injected Dose, Skeleton", "setting": "[1]; 48 Hours", "result": "60% of Injected Dose"},
      {"measurement": "Average Percent of Injected Dose, Urine", "setting": "[1]; 48 Hours", "result": "50% of Injected Dose"},
      {"measurement": "Bone/Blood", "setting": "[1]; 48 Hours", "result": 8200},
      {"measurement": "Bone/Muscle", "setting": "[1]; 48 Hours", "result": 2800},
      {"measurement": "Average Percent of Injected Dose, Blood", "setting": "[1]; 72 Hours", "result": ".006% of Injected Dose"},
      {"measurement": "Average Percent of Injected Dose, Kidneys", "setting": "[1]; 72 Hours", "result": ".216% of Injected Dose"},
      {"measurement": "Average Percent of Injected Dose, Liver", "setting": "[1]; 72 Hours", "result": ".492% of Injected Dose"},
      {"measurement": "Average Percent of Injected Dose, Skeleton", "setting": "[1]; 72 Hours", "result": "57% of Injected Dose"},
      {"measurement": "Average Percent of Injected Dose, Urine", "setting": "[1]; 72 Hours", "result": "53% of Injected Dose"},
      {"measurement": "Bone/Blood", "setting": "[1]; 72 Hours", "result": 7800},
      {"measurement": "Bone/Muscle", "setting": "[1]; 72 Hours", "result": 3400},
      {"measurement": "clearance of the radioactivity from the skeletal system", "setting": "[1]; rats, up to 72 hours, words", "result": "no significant clearance of the radioactivity from the skeletal system"},
      {"measurement": "blood clearance", "setting": "[1]; rats, words", "result": "rapid blood clearance"},
      {"measurement": "uptake of the radioactivity in bone", "setting": "[1]; rats, words", "result": "rapid uptake of the radioactivity in bone"},
      {"measurement": "uptake of radioactivity in the area of the tumor (scintillation scan)", "setting": "tumor; English Setter, tumor in pelvis, approximately 19 mCi, 2 hours", "result": "high uptake of radioactivity in the area of the tumor"},
      {"measurement": "scans compared with Tc-99m-MDP", "setting": "tumor; English Setter, 2 hours", "result": "looked very similar to an earlier scan performed using Tc-99m-MDP"},
      {"measurement": "lesion to normal bone ratio", "setting": "tumor; English Setter, compared with Tc-99m", "result": "very similar to that for To-99m"},
      {"measurement": "amount of Sm-153 in the tumor relative to non-lesionous bone, per gram basis", "setting": "tumor; Irish Setter, tumor in femur, same leg", "result": "15-20 times"},
      {"measurement": "scans compared with Tc-99m-MDP", "setting": "tumor; Irish setter, sarcoma metastatic to bone", "result": "very similar to scans obtained earlier using Tc-99m-MDP"},
      {"measurement": "uptake of Sm-153 in the area of the lesion (scintillation scans)", "setting": "tumor; Irish setter, sarcoma metastatic to bone, 16 mCi (0.57 mCi/kg)", "result": "high uptake of Sm-153 in the area of the lesion"}
    ]}
  ]
}
